*1 amine or outer side, *2 acyl side, *3 side chain or, on linkers, in order; H or OH if unused. Where a SMILES comes first, the peptide text is derived from it. Side-chain parts run from the residue outwards. [ ]: non-standard residue; d: D form. The star is where a group is joined. PEG12 = NCCOCCOCCOCCOCCOCCOCCOCCOCCOCCOCCOCCOCCC(=O)O; γGlu = O=C(O)[C@H](CCC(=O)[*:2])N[*:1]; 1Nal = N[C@@H](Cc1cccc2ccccc12)C(=O)O; Stearoyl = CCCCCCCCCCCCCCCCCC(=O)*; Palmitoyl = CCCCCCCCCCCCCCCC(=O)*; Nle = CCCC[C@H](N)C(=O)O; Aib = CC(C)(N)C(=O)O
Target: T1, RXFP1 (Homo sapiens, UniProt Q9HBX9)
T1 construct: OVCAR5 cells expressing endogenous RXFP1; endogenous in cells; host or cells: OVCAR5 cells
T1 sequence (Q9HBX9 1-757): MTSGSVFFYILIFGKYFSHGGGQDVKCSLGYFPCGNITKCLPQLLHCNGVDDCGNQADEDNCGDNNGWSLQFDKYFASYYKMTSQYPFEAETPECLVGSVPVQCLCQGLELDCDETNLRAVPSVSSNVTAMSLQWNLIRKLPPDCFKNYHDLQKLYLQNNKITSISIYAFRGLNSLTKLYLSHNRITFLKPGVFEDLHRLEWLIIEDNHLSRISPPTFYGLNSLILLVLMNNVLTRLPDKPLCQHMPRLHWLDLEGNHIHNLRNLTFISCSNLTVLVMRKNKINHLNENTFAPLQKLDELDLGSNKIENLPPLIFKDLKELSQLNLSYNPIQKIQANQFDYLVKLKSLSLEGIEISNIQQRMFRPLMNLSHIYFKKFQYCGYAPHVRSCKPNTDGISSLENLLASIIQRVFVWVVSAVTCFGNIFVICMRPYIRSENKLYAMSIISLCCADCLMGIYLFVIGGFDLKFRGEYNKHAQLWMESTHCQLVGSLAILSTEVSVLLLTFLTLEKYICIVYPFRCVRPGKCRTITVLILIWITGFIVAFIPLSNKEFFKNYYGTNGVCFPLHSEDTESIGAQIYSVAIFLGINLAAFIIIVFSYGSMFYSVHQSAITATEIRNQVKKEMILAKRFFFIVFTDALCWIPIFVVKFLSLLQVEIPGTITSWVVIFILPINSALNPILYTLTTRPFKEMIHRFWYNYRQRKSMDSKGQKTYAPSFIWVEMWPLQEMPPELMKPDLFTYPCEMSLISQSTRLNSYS
Assay: OVCAR5 cAMP assay (HTRF), RXFP1 agonist activity
Type: cell-based
Conditions: for Emax: OVCAR-5, maximal cAMP relative to H2-relaxin maximum (100%), read-out: EMax, OVCAR 5 cells (cAMP); for EC50: OVCAR5 cells, cAMP HTRF, read-out: EC50 (nM), OVCAR 5 cells (cAMP)
From the text: OVCAR5 cells expressing endogenous RXFP1 were used to test RXP1 agonist properties of peptides of the invention, and in particular of the peptides of sequence SEQ ID NO: 1-193.
Since RXFP1 is a Gs coupled GPCR, cAMP was used as readout of RXFP1 activation.
Isobutyl Methyl Xanthine (IBMX) was used to inhibit phosphodiesterase activity facilitating cAMP measurements. HTRF (Homogenous Time Resolved Fluorescence) technology was used to detect cAMP due to its great sensitivity.
In summary, OVCAR5 were grown in regular medium (RPMI) containing 10% fetal calf serum (FCS) and 1% antibiotics (penicillin/streptomycin).
Before the experiments, cells were detached with accutase and incubated for 40 minutes at 37° C. with 1 mM (3-isobutyl-1-methylxanthine) IBMX.
Cells were then distributed in 384 black well plates containing increasing concentrations of the different peptides in a fix volume of medium (without FCS).
After an incubation of 30 min at 37° C. in an humid incubator in 5% CO2, the reaction was stopped by adding a fixed volume of a solution containing a lysis buffer and cAMP-D2 (cAMP labeled with the dye d2) and the anti cAMP antibody linked to Europium and used for cAMP detection.
Readout of the experiment were performed on a fluorimeter allowing HTRF measurement. Activation curves were generated by plotting the intracellular value of cAMP versus log 10 of the compound concentration.
The 50% activation concentration (EC50) was calculated by nonlinear regression using the sigmoidal dose-response (variable slope) equation with Prism 5 software.
Emax % is determined as the maximal intracellular value of cAMP for test compound (upper limit of cAMP vs concentration curve) divided by the maximal intracellular value of cAMP for H2-relaxin determined in the same test occasion multiplied by 100. Emax %=100×[cAMPtest cpd]/[cAMPH2-RlX]

Compound	Emax [%]	EC50 [nM]
CCCCCCCCCCCCCCCCCC(=O)N[C@@H](CCC(=O)NCCCC[C@H](NC(=O)CCOCCOCCOCCOCCOCCOCCOCCOCCOCCOCCOCCOCCNC(=O)[C@H](CCCCN)NC(=O)[C@H](CCCCN)NC(=O)[C@H](CCCNC(=N)N)NC(=O)C(C)(C)NC(=O)[C@H](CO)NC(=O)[C@H](Cc1c[nH]c2ccccc12)NC(=O)[C@@H](NC(=O)[C@H](CO)NC(=O)[C@H](CCCC)NC(=O)CNC(=O)[C@H](CCC(=O)O)NC(=O)C(C)(C)NC(=O)C(C)(C)NC(=O)[C@@H](NC(=O)[C@H](CCC(N)=O)NC(=O)[C@H](C)NC(=O)[C@H](CCCNC(=N)N)NC(=O)[C@@H](NC(=O)[C@H](CCCCN)NC(=O)[C@H](CCC(=O)O)NC(=O)[C@H](CCCNC(=N)N)NC(=O)CNC(=O)[C@H](CCC(=O)O)NC(=O)[C@H](CC(C)C)NC(C)=O)C(C)C)[C@@H](C)CC)[C@@H](C)O)C(N)=O)C(=O)O [compound 22] (Ac-LEGREKVRAQI[Aib][Aib]EG[Nle]STWS[Aib]RKK[PEG12]K([γGlu-Stearoyl])-NH2)	104	
CCCCCCCCCCCCCCCC(=O)N[C@@H](CCC(=O)N[C@@H](CCC(=O)N[C@@H](CCC(=O)NCCCC[C@H](NC(=O)CCOCCOCCOCCOCCOCCOCCOCCOCCOCCOCCOCCOCCNC(=O)[C@H](CCCCN)NC(=O)[C@H](CCCNC(=N)N)NC(=O)C(C)(C)NC(=O)[C@H](CO)NC(=O)[C@H](Cc1c[nH]c2ccccc12)NC(=O)[C@@H](NC(=O)[C@H](CO)NC(=O)[C@H](CCSC)NC(=O)CNC(=O)[C@H](CCC(=O)O)NC(=O)C(C)(C)NC(=O)C(C)(C)NC(=O)[C@@H](NC(=O)[C@H](CCCCNC(C)=O)NC(=O)[C@H](C)NC(=O)[C@H](CCCNC(=N)N)NC(=O)[C@@H](NC(=O)[C@H](CCCCN)NC(=O)[C@H](CCC(=O)O)NC(=O)[C@H](CCCNC(=N)N)NC(=O)CNC(=O)[C@H](CCC(=O)O)NC(=O)[C@H](CC(C)C)NC(C)=O)C(C)C)[C@@H](C)CC)[C@@H](C)O)C(N)=O)C(=O)O)C(=O)O)C(=O)O [compound 25] (Ac-LEGREKVRAK(Ac)I[Aib][Aib]EGMSTWS[Aib]RK[PEG12]K([γGlu-γGlu-γGlu-Palmitoyl])-NH2)	95	1.21
CCCCCCCCCCCCCCCC(=O)N[C@@H](CCC(=O)N[C@@H](CCC(=O)N[C@@H](CCC(=O)NCCCC[C@H](NC(=O)CCOCCOCCOCCOCCOCCOCCOCCOCCOCCOCCOCCOCCNC(=O)[C@H](CCCCNC(C)=O)NC(=O)[C@H](CCCCN)NC(=O)[C@H](CCCNC(=N)N)NC(=O)C(C)(C)NC(=O)[C@H](CO)NC(=O)[C@H](Cc1c[nH]c2ccccc12)NC(=O)[C@@H](NC(=O)[C@H](CO)NC(=O)[C@H](CCCC)NC(=O)CNC(=O)[C@H](CCC(=O)O)NC(=O)C(C)(C)NC(=O)C(C)(C)NC(=O)[C@@H](NC(=O)[C@H](CCC(N)=O)NC(=O)C(C)(C)NC(=O)[C@H](CCCNC(=N)N)NC(=O)[C@@H](NC(=O)[C@H](CCCCN)NC(=O)[C@H](CCC(=O)O)NC(=O)[C@H](CCCNC(=N)N)NC(=O)CNC(=O)[C@H](CCC(=O)O)NC(=O)[C@H](CC(C)C)NC(C)=O)C(C)C)[C@@H](C)CC)[C@@H](C)O)C(N)=O)C(=O)O)C(=O)O)C(=O)O [compound 28] (Ac-LEGREKVR[Aib]QI[Aib][Aib]EG[Nle]STWS[Aib]RKK(Ac)[PEG12]K([γGlu-γGlu-γGlu-Palmitoyl])-NH2)	78	
CCCCCCCCCCCCCCCC(=O)N[C@@H](CCC(=O)N[C@@H](CCC(=O)N[C@@H](CCC(=O)NCCCC[C@H](NC(=O)CCOCCOCCOCCOCCOCCOCCOCCOCCOCCOCCOCCOCCNC(=O)[C@H](CCCCN)NC(=O)[C@H](CCCNC(=N)N)NC(=O)C(C)(C)NC(=O)[C@H](CO)NC(=O)[C@H](Cc1cccc2ccccc12)NC(=O)[C@@H](NC(=O)[C@H](CO)NC(=O)[C@H](CCCC)NC(=O)CNC(=O)[C@H](CCC(=O)O)NC(=O)C(C)(C)NC(=O)C(C)(C)NC(=O)[C@@H](NC(=O)[C@H](CCCCNC(C)=O)NC(=O)[C@H](C)NC(=O)[C@H](CCCNC(=N)N)NC(=O)[C@@H](NC(=O)[C@H](CCCCN)NC(=O)[C@H](CCC(=O)O)NC(=O)[C@H](CCCNC(=N)N)NC(=O)CNC(=O)[C@H](CCC(=O)O)NC(=O)[C@H](CC(C)C)NC(C)=O)C(C)C)[C@@H](C)CC)[C@@H](C)O)C(N)=O)C(=O)O)C(=O)O)C(=O)O [compound 29] (Ac-LEGREKVRAK(Ac)I[Aib][Aib]EG[Nle]ST[1Nal]S[Aib]RK[PEG12]K([γGlu-γGlu-γGlu-Palmitoyl])-NH2)	78	

Now from value to molecule:

Emax [%]	EC50 [nM]	Compound
86		CCCCCCCCCCCCCCCCCC(=O)N[C@@H](CCC(=O)N[C@@H](CCC(=O)N[C@@H](CCC(=O)NCCCC[C@H](NC(=O)CCOCCOCCOCCOCCOCCOCCOCCOCCOCCOCCOCCOCCNC(=O)[C@H](CCCCN)NC(=O)[C@H](CCCCN)NC(=O)[C@H](CCCNC(=N)N)NC(=O)C(C)(C)NC(=O)[C@H](CO)NC(=O)[C@H](Cc1c[nH]c2ccccc12)NC(=O)[C@@H](NC(=O)[C@H](CO)NC(=O)[C@H](CCCC)NC(=O)CNC(=O)[C@H](CCC(=O)O)NC(=O)C(C)(C)NC(=O)C(C)(C)NC(=O)[C@@H](NC(=O)[C@H](CCC(N)=O)NC(=O)[C@H](C)NC(=O)[C@H](CCCNC(=N)N)NC(=O)[C@@H](NC(=O)[C@H](CCCCN)NC(=O)[C@H](CCC(=O)O)NC(=O)[C@H](CCCNC(=N)N)NC(=O)CNC(=O)[C@H](CCC(=O)O)NC(=O)[C@H](CC(C)C)NC(C)=O)C(C)C)[C@@H](C)CC)[C@@H](C)O)C(N)=O)C(=O)O)C(=O)O)C(=O)O [compound 31] (Ac-LEGREKVRAQI[Aib][Aib]EG[Nle]STWS[Aib]RKK[PEG12]K([γGlu-γGlu-γGlu-Stearoyl])-NH2)
96	1.04	CCCCCCCCCCCCCCCCCC(=O)N[C@@H](CCC(=O)N[C@@H](CCC(=O)N[C@@H](CCC(=O)NCCCC[C@H](NC(=O)CCOCCOCCOCCOCCOCCOCCOCCOCCOCCOCCOCCOCCNC(=O)[C@H](CCCCN)NC(=O)[C@H](CCCCN)NC(=O)[C@H](CCCNC(=N)N)NC(=O)C(C)(C)NC(=O)[C@H](CO)NC(=O)[C@H](Cc1c[nH]c2ccccc12)NC(=O)[C@@H](NC(=O)[C@H](CO)NC(=O)[C@H](CCCC)NC(=O)CNC(=O)[C@H](CCC(=O)O)NC(=O)C(C)(C)NC(=O)C(C)(C)NC(=O)[C@@H](NC(=O)[C@H](CCCCNC(C)=O)NC(=O)[C@H](C)NC(=O)[C@H](CCCNC(=N)N)NC(=O)[C@@H](NC(=O)[C@H](CCCCN)NC(=O)[C@H](CCC(=O)O)NC(=O)[C@H](CCCNC(=N)N)NC(=O)CNC(=O)[C@H](CCC(=O)O)NC(=O)[C@H](CC(C)C)NC(C)=O)C(C)C)[C@@H](C)CC)[C@@H](C)O)C(N)=O)C(=O)O)C(=O)O)C(=O)O [compound 32] (Ac-LEGREKVRAK(Ac)I[Aib][Aib]EG[Nle]STWS[Aib]RKK[PEG12]K([γGlu-γGlu-γGlu-Stearoyl])-NH2)
95		CCCCCCCCCCCCCCCCCC(=O)N[C@@H](CCC(=O)N[C@@H](CCC(=O)N[C@@H](CCC(=O)NCCCC[C@H](NC(=O)CCOCCOCCOCCOCCOCCOCCOCCOCCOCCOCCOCCOCCNC(=O)[C@H](CCCCN)NC(=O)[C@H](CCCNC(=N)N)NC(=O)C(C)(C)NC(=O)[C@H](CO)NC(=O)[C@H](Cc1c[nH]c2ccccc12)NC(=O)[C@@H](NC(=O)[C@H](CO)NC(=O)[C@H](CCCC)NC(=O)CNC(=O)[C@H](CCC(=O)O)NC(=O)C(C)(C)NC(=O)C(C)(C)NC(=O)[C@@H](NC(=O)[C@H](CCCCNC(C)=O)NC(=O)[C@H](C)NC(=O)[C@H](CCCNC(=N)N)NC(=O)[C@@H](NC(=O)[C@H](CCCCN)NC(=O)[C@H](CCC(=O)O)NC(=O)[C@H](CCCNC(=N)N)NC(=O)CNC(=O)[C@H](CCC(=O)O)NC(=O)[C@H](CC(C)C)NC(C)=O)C(C)C)[C@@H](C)CC)[C@@H](C)O)C(N)=O)C(=O)O)C(=O)O)C(=O)O [compound 34] (Ac-LEGREKVRAK(Ac)I[Aib][Aib]EG[Nle]STWS[Aib]RK[PEG12]K([γGlu-γGlu-γGlu-Stearoyl])-NH2)

Source: US10988523B2, “Modified lipidated Relaxin B chain peptides and their therapeutic use” (Sanofi, priority 2018, dated 2021)
